The values that follow come from ChEMBL document CHEMBL1141124 (J Med Chem, 2005).

In general, Ki refers to the equilibrium dissociation constant of an inhibitor or competing ligand from its target.

Starred links: 1 amine or outer side, 2 acyl side, 3 side chain; linkers in the order of their positions; H or OH if unused. Non-standard residues stand in square brackets, D forms with d. Residues, ends and D or L forms follow the SMILES beside them. X2 = O=C(c1cc(CN[*:1])cc(Cc2ccc(O)cc2)c1)[*:2]; X1 = O=C(c1cc(Cc2ccc(O)cc2)cc(N[*:1])c1)[*:2]; Phe(4-NH2) = Nc1ccc(C[C@H](N)C(=O)O)cc1 A value given as a limit tells only on which side of the number the result lay.

This assay concerns the target T1, Type-1 angiotensin II receptor B (Rattus norvegicus, UniProt P29089).
T1 sequence (P29089 whole entry): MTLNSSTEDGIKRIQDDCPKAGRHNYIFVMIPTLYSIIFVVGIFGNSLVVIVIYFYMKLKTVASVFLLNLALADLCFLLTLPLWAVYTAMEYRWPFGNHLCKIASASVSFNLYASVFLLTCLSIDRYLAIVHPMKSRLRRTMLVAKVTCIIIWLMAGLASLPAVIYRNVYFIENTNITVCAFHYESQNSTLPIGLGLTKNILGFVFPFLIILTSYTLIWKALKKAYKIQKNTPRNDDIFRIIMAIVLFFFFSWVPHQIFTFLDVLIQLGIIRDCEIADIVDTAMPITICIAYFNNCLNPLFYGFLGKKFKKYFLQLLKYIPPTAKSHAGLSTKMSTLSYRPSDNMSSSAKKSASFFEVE
The assay can be described thus: Binding affinity for angiotensin II receptor, type 1 in rat liver membrane using [125I]-Ang II as radioligand, in pH 7.4 Tris-HCl buffer for 2 hr at 25 degree C. Type of assay: cell membranes.
Take `CC[C@H](C)[C@H](NC(=O)[C@H](Cc1ccc(O)cc1)NC(=O)[C@@H](NC(=O)[C@H](CCCN=C(N)N)NC(=O)[C@@H](N)CC(=O)O)C(C)C)C(=O)N[C@@H](Cc1ccc(N)cc1)C(=O)N1CCC[C@H]1C(=O)N[C@@H](Cc1ccccc1)C(=O)O` (H-DRVYI[Phe(4-NH2)]PF-OH): the inhibitory constant (Ki) was over 10 µM.

In turn, `CC[C@H](C)[C@H](NC(=O)c1cc(CNC(=O)[C@H](CCCN=C(N)N)NC(=O)[C@@H](N)CC(=O)O)cc(Cc2ccc(O)cc2)c1)C(=O)N[C@@H](Cc1c[nH]cn1)C(=O)N1CCC[C@H]1C(=O)N[C@@H](Cc1ccccc1)C(=O)O` (H-DR[X2]IHPF-OH) had a Ki of over 10 µM.

`CC(C)[C@H](NC(=O)[C@H](CCCN=C(N)N)NC(=O)[C@@H](N)CC(=O)O)C(=O)Nc1cc(Cc2ccc(O)cc2)cc(C(=O)N[C@@H](Cc2c[nH]cn2)C(=O)N2CCC[C@H]2C(=O)N[C@@H](Cc2ccccc2)C(=O)O)c1` (H-DRV[X1]HPF-OH) had an inhibition constant (Ki) of 0.0303 µM.

On to `CC[C@H](C)[C@H](NC(=O)[C@H](Cc1ccc(O)cc1)NC(=O)[C@@H](NC(=O)[C@H](CCCNC(=N)N)NC(=O)CNC)C(C)C)C(=O)N[C@@H](Cc1cnc[nH]1)C(=O)N1CCC[C@H]1C(=O)N[C@@H](Cc1ccccc1)C(=O)O`, for which affinity was put at a Ki of 0.00016 µM.

Turning to `N=C(N)NCCC[C@H](NC(=O)[C@@H](N)CC(=O)O)C(=O)Nc1cc(Cc2ccc(O)cc2)cc(C(=O)N[C@@H](Cc2cnc[nH]2)C(=O)N2CCC[C@H]2C(=O)N[C@@H](Cc2ccccc2)C(=O)O)c1` (H-DR[X1]HPF-OH), the Ki is over 10 µM.

In turn, `CC(C)[C@H](NC(=O)[C@H](CCCN=C(N)N)NC(=O)[C@@H](N)CC(=O)O)C(=O)NCc1cc(Cc2ccc(O)cc2)cc(C(=O)N[C@@H](Cc2c[nH]cn2)C(=O)N2CCC[C@H]2C(=O)N[C@@H](Cc2ccccc2)C(=O)O)c1` (H-DRV[X2]HPF-OH) registered a Ki of over 10 µM.

Regarding `NC(N)=NCCC[C@H](NC(=O)[C@@H](N)CC(=O)O)C(=O)NCc1cc(Cc2ccc(O)cc2)cc(C(=O)N[C@@H](Cc2c[nH]cn2)C(=O)N2CCC[C@H]2C(=O)N[C@@H](Cc2ccccc2)C(=O)O)c1` (H-DR[X2]HPF-OH), the Ki is over 10 µM.
